Laboratory results published in PubChem BioAssay AID2060609 (Molecular Pharmacology Branch, DTP, NCI, 2025).
Where “and” joins values, the source holds several entries; their conditions need not be identical. Identical values can stand only once.

System: 855422-203-R-J1-PDC complex spheroids, viability
Experiment: Anticancer human tumor 855422-203-R-J1-PDC patient-derived bladder carcinoma cell line growth inhibition [CLK]
Settings: for viability, T/C: stronger effect = lower value
Outline: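 Patient-derived tumor cells grown as complex spheroids with HUVEC endothelial cells and mesenchymal stem cells, treated with drug combinations. Concentrations descend in half-log steps from near clinical Cmax, or from 10 microM if Cmax unknown.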
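Note: spheroids exposed to drugs for seven days before readout.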
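Throughout, for viability, T/C: 100% = DMSO vehicle control wells.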

Compound `COc1ccc([C@@H](O)c2cc(-c3ncnc4cc(N5CCOCC5)ccc34)c(F)cc2Cl)nn1` + CN1CCN(c2cc(C(=O)Nc3cc4cc(-c5cnn(C)c5)ccc4cn3)ccn2)CC1 has an IC50 (curve of first compound, second compound 0.0316 µM) of 5.35 µM, an IC50 (curve of first compound, second compound 0.1 µM) of 5.05 µM and an IC50 (curve of first compound, second compound 0.316 µM) of less than 0.0316 µM. The IC50 (curve of first compound, second compound 1 µM) was less than 0.0316 µM, the IC50 (curve of first compound, second compound 3.16 µM) was less than 0.0316 µM and the IC50 (curve of first compound, second compound 10 µM) was less than 0.0316 µM. It also gave a viability, T/C (second compound 0.0316 µM, first compound 0.0316 µM) of 104%, a viability, T/C (second compound 0.0316 µM, first compound 0.1 µM) of 118% and a viability, T/C (second compound 0.0316 µM, first compound 0.316 µM) of 91.3%. It also gave a viability, T/C (second compound 0.0316 µM, first compound 1 µM) of 94%, a viability, T/C (second compound 0.0316 µM, first compound 3.16 µM) of 66% and a viability, T/C (second compound 0.0316 µM, first compound 10 µM) of 29.9%. For the same compound, the viability, T/C (second compound 0.1 µM, first compound 0.0316 µM) was 84.7%, the viability, T/C (second compound 0.1 µM, first compound 0.1 µM) was 96.1% and the viability, T/C (second compound 0.1 µM, first compound 0.316 µM) was 89.2%. For the same compound, the viability, T/C (second compound 0.1 µM, first compound 1 µM) was 86%, the viability, T/C (second compound 0.1 µM, first compound 3.16 µM) was 64.6% and the viability, T/C (second compound 0.1 µM, first compound 10 µM) was 28.7%. For the same compound, the viability, T/C (second compound 0.316 µM, first compound 0.0316 µM) was 6.51%, the viability, T/C (second compound 0.316 µM, first compound 0.1 µM) was 8.74% and the viability, T/C (second compound 0.316 µM, first compound 0.316 µM) was 5.23%. It also gave a viability, T/C (second compound 0.316 µM, first compound 1 µM) of 4.62%, a viability, T/C (second compound 0.316 µM, first compound 3.16 µM) of 5.93% and a viability, T/C (second compound 0.316 µM, first compound 10 µM) of 5.44%. For the same compound, the viability, T/C (second compound 1 µM, first compound 0.0316 µM) was 0.14%, the viability, T/C (second compound 1 µM, first compound 0.1 µM) was 0.19% and the viability, T/C (second compound 1 µM, first compound 0.316 µM) was 0.74%. The viability, T/C (second compound 1 µM, first compound 1 µM) was 0.11%, the viability, T/C (second compound 1 µM, first compound 3.16 µM) was 2.55% and the viability, T/C (second compound 1 µM, first compound 10 µM) was 0.09%. It also gave a viability, T/C (second compound 3.16 µM, first compound 0.0316 µM) of 1.7%, a viability, T/C (second compound 3.16 µM, first compound 0.1 µM) of 0.33% and a viability, T/C (second compound 3.16 µM, first compound 0.316 µM) of 1.52%. The viability, T/C (second compound 3.16 µM, first compound 1 µM) was 0.2%, the viability, T/C (second compound 3.16 µM, first compound 3.16 µM) was 0.33% and the viability, T/C (second compound 3.16 µM, first compound 10 µM) was 0.13%. It also gave a viability, T/C (second compound 10 µM, first compound 0.0316 µM) of 0.6%, a viability, T/C (second compound 10 µM, first compound 0.1 µM) of 0.27% and a viability, T/C (second compound 10 µM, first compound 0.316 µM) of 0.24%. For the same compound, the viability, T/C (second compound 10 µM, first compound 1 µM) was 0.24%, the viability, T/C (second compound 10 µM, first compound 3.16 µM) was 0.26% and the viability, T/C (second compound 10 µM, first compound 10 µM) was 0.19%.

In the case of `COc1ccc([C@@H](O)c2cc(-c3ncnc4cc(N5CCOCC5)ccc34)c(F)cc2Cl)nn1`, the viability, T/C (compound 0.0316 µM) is reported as 95.2% and 115%, the viability, T/C (compound 0.1 µM) is reported as 98.5% and 95.4% and the viability, T/C (compound 0.316 µM) is reported as 105% and 107%. For the same compound, the viability, T/C (compound 1 µM) was 103% and 85.6%, the viability, T/C (compound 3.16 µM) was 64.8% and 64.9% and the viability, T/C (compound 10 µM) was 35.1% and 26.4%. For the same compound, the IC50 (curve of compound) was 5.61 µM and 4.9 µM.
